How the values were obtained:
[1] = tested on: human γ-globin promoter (EGFP reporter) in K562 cells; test: HbF activation assay on K562 (EGFP/RFP reporter model system for screening of inducers of fetal hemoglobin); type: cell-based; conditions: 60 hours
Excerpt: In order to test several compounds, a model system was produced based on previous findings present in the literature. The K562 erythroid-like cell lines, isolated and characterized by Lozzio & Lozzio (Blood, 45(3), pp 321-334) from a patient with chronic myelogenous leukemia in blast crisis, have been extensively employed as a useful in vitro model to study the molecular mechanism(s) regulating the expression of embryonic and fetal human globin genes, as well as for screening of new differentiation-inducing compounds. A stable cell line where reporter genes encoding green EGFP and far-red fluorescent protein red-FP are placed under the control of the human γ-globin or β-globin promoters respectively was used (see Vadolas et al, Hum. Mol. Genet. 2004, 13, 2, 223-233 for details). The modified 3-cluster also contains the upstream regulatory region called LCR. This cell line grows in suspension at 37° C. and 5% CO2 in humidified atmosphere in the following medium: DMEM, 10% foetal bovine serum, glutamine and antibiotics (penicillin and streptomycin);
The assay procedures is as follows: • Single concentration compounds or serially diluted samples are transferred to an empty assay plates by a spotter (ATS-100, EDC Biosystems, USA) in order to have a final concentration of DMSO of 0.25% in 50 μL of cell culture. Source plats contains compounds dissolved in 100% DMSO • Black, transparent bottom, 384 wells, tissue culture treated plates are used as assay plates. • Assay plates containing spotted compounds are filled with a suspension of cell in the described assay medium. The final cell concentration is of 1000 cells per well. • Cells are incubated in humidified atmosphere, 37° C.-5% CO2, for 60 hours • Cell nuclei are stained by adding 10 ul (6 μM; 1 μM final) Hoechst 33342 (Life Technologies, USA) • The cell associated intensity is read by a plate based cytometer (ACUMEN explorer, TTP Labtech, UK) • The nuclei count is used to assess the cell proliferation/death and to normalize the total EGFP/RFP intensity. HbF Activation Assay in Human Cell Line K562
The compounds of the invention were tested in the HbF activation assay on K562, as model system for screening of potential inducers of fetal hemoglobin.

HDAC1 = target: T1, HDAC1 (Homo sapiens, UniProt Q13547); test: HDAC1 assay (Fluor-de-Lys fluorescent deacetylase assay); type: biochemical; conditions: read-out: hHDAC IC50
T1 construct: made in house
Description: The HDAC1 assay is used to quantify the histone deacetylase (HDAC) activity. The assay is performed in 384 well microtiter plates by pre-incubating serial dilutions of the compounds with a fixed concentration of HeLa nuclear extract or purified HDAC1 and then adding an acetylated lysine-containing substrate/developer that fluoresces upon deacetylation.
Reagents of the HDAC Fluorescent Activity Assay are purchased from BioMol Research Laboratories (Plymouth Meeting, Pa.) and feature the Fluor-de-Lys™ Substrate/Developer System.
TSA Stock: TSA is provided as a 10 mM stock solution in 100% dimethylsulfoxide (DMSO). […] The final concentration in the assay is 20 uM.
3 uM [final] TSA to this solution increases its ability to stop the reaction.
HDAC1 Working Solution: The HDAC1 enzyme is diluted in assay buffer prior to each use from a fresh aliquot of enzyme. The final concentration in the assay is 1-2 nM.
Compounds: Test compounds are directly transferred from a 100% DMSO solution into assay plates by spotting nanoliters of solutions by an acoustic dispenser (ATS-100, EDC biosystems, US).
HeLa cells transiently transfected with pCDNA3-HDAC1-FLAG are grown to 80% confluence on 10 cm culture dishes in DMEM, 10% Fetal bovine serum supplemented with antibiotics and glutamine. Cells are washed with 10 ml cold PBS and scraped into 2 ml of PBS. Cells are centrifuged for 5 minutes at 800×g at 4° C., washed with 30 ml PBS and resuspended in 10 ml PBS, counted, re-centrifuged and frozen at −80° C.
The frozen cell pellet is re-suspended in 1 ml of hypotonic lysis buffer (LB: 20 mM Hepes pH7.9, 0.25 mM EDTA, 10% glycerol) containing COMPLETE protease inhibitor and incubated on ice for 15 minutes, followed by homogenization on a 2-ml DounceB homogenizer (25 strokes). 150 mM KCl and 0.5% NP-40 are added to the homogenate and the solution is sonicated twice for 30 seconds (output5/6, duty cycle 90) and incubated for 1 hour at 4° C. After a 30 minutes centrifugation at 12000 rpm and 4° C. the supernatant (soluble extract) is collected and protein concentration is determined using the BIORAD assay.
Anti-FLAG M2 affinity resin (Sigma) is washed three times with TBS and twice with LB. 10 μl of the LB-washed resin/mg of protein (2-3 ug of Flagged-HDAC1) are added to the soluble extract (1 mL) and incubated overnight at 4° C. with gentle mixing. The resin is then collected by centrifugation, washed once with LB, twice with LB+0.1% NP40 and twice with elution buffer (50 mM Hepes pH 7.4, 5% glycerol, 100 mM KCl, 0.01% Triton X-100).
The concentration of purified HDAC is determined by Western blot analysis.

HDAC in Hela cells = test: HDAC Hela Cell Based assay

T1 sequence (Q13547 whole entry): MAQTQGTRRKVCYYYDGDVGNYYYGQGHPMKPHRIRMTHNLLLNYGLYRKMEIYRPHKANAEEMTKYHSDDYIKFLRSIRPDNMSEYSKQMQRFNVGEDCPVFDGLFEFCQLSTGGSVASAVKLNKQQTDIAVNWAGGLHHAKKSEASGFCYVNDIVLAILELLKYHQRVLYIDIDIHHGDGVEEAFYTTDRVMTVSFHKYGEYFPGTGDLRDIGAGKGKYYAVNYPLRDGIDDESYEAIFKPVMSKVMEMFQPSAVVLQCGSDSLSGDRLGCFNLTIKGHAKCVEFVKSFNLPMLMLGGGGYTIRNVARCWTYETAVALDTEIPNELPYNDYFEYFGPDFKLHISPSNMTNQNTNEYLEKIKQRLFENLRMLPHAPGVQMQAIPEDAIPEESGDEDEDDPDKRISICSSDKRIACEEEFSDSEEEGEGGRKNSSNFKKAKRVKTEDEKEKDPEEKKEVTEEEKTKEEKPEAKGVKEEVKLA

SMILES: CCC(=O)CCCCC[C@H](NC(=O)C(C)n1cccn1)c1ncc(-c2cc3ccccc3nc2OC)o1 (stereo partly drawn) [Compound 102, N-((S)-1-(5-(2-methoxyquinolin-3-yl)oxazol-2-yl)-7-oxononyl)-2-(1H-pyrazol-1-yl)propanamide]
- EC50 [1]: > 1 µM
- IC50 (HDAC1): < 0.1 µM
- IC50 (HDAC in Hela cells): 0.1 to 1 µM

SMILES: CCC(=O)CCCCC[C@H](NC(=O)C1CCN(C)C1)c1ncc(-c2cc3ccccc3nc2OC)o1 (stereo partly drawn) [Compound 34, N-((S)-1-(5-(2-methoxyquinolin-3-yl)oxazol-2-yl)-7-oxononyl)-1-methylpyrrolidine-3-carboxamide]
- EC50 [1]: 0.1 to 1 µM
- IC50 (HDAC1): < 0.1 µM
- IC50 (HDAC in Hela cells): 0.1 to 1 µM

SMILES: CCC(=O)CCCCC[C@H](NC(=O)Cn1c(C)nc2ccccc21)c1ncc(-c2ccccc2)o1 [Compound 18, (S)-2-(2-methyl-1H-benzo[d]imidazol-1-yl)-N-(7-oxo-1-(5-phenyloxazol-2-yl)nonyl)acetamide]
- EC50 [1]: > 1 µM
- IC50 (HDAC1): 0.1 to 1 µM
- IC50 (HDAC in Hela cells): > 1 µM

SMILES: CCC(=O)CCCCC[C@H](NC(=O)Cn1cnc2ccccc21)c1ncc(-c2cc3ccccc3nc2OC)o1 [Compound 97, (S)-2-(1H-benzo[d]imidazol-1-yl)-N-(1-(5-(2-methoxyquinolin-3-yl)oxazol-2-yl)-7-oxononyl)acetamide]
- EC50 [1]: > 1 µM
- IC50 (HDAC1): < 0.1 µM
- IC50 (HDAC in Hela cells): 0.1 to 1 µM

SMILES: CCC(=O)CCCCC[C@H](NC(=O)C1CCCN(C)C1)c1ncc(-c2cc3ccccc3nc2OC)o1 (stereo partly drawn) [Compound 104, N-((S)-1-(5-(2-methoxyquinolin-3-yl)oxazol-2-yl)-7-oxononyl)-1-methylpiperidine-3-carboxamide]
- EC50 [1]: 0.1 to 1 µM
- IC50 (HDAC1): < 0.1 µM
- IC50 (HDAC in Hela cells): < 0.1 µM

SMILES: CCC(=O)CCCCC[C@H](NC(=O)CCn1c(CC)nc2ccccc21)c1nnc(-c2cc3ccccc3nc2OC)o1 [Compound 50, (S)-3-(2-ethyl-1H-benzo[d]imidazol-1-yl)-N-(1-(5-(2-methoxyquinolin-3-yl)-1,3,4-oxadiazol-2-yl)-7-oxononyl)propanamide]
- EC50 [1]: 0.1 to 1 µM
- IC50 (HDAC1): < 0.1 µM
- IC50 (HDAC in Hela cells): 0.1 to 1 µM

SMILES: CCC(=O)CCCCC[C@H](NC(=O)C1CNC(=O)C1)c1ncc(-c2cc3ccccc3nc2OC)o1 (stereo partly drawn) [Compound 72, N-((S)-1-(5-(2-methoxyquinolin-3-yl)oxazol-2-yl)-7-oxononyl)-5-oxopyrrolidine-3-carboxamide]
- EC50 [1]: 0.1 to 1 µM
- IC50 (HDAC1): < 0.1 µM
- IC50 (HDAC in Hela cells): 0.1 to 1 µM

SMILES: CCC(=O)CCCCC[C@H](NC(=O)C1CCN(C)CC1)c1ncc(-c2ccccc2)o1 [Compound 3, (S)-1-methyl-N-(7-oxo-1-(5-phenyloxazol-2-yl)nonyl)piperidine-4-carboxamide]
- EC50 [1]: > 1 µM
- IC50 (HDAC1): < 0.1 µM
- IC50 (HDAC in Hela cells): > 1 µM

SMILES: CCC(=O)CCCCC[C@H](NC(=O)Cc1cc2ncccn2n1)c1ncc(-c2cc3ccccc3nc2OC)o1 [Compound 89, (S)-N-(1-(5-(2-methoxyquinolin-3-yl)oxazol-2-yl)-7-oxononyl)-2-(pyrazolo[1,5-a]pyrimidin-2-yl)acetamide]
- EC50 [1]: > 1 µM
- IC50 (HDAC1): < 0.1 µM
- IC50 (HDAC in Hela cells): 0.1 to 1 µM

SMILES: CCC(=O)CCCCC[C@H](NC(=O)c1csnn1)c1ncc(-c2cc3ccccc3nc2OC)o1 [Compound 99, (S)-N-(1-(5-(2-methoxyquinolin-3-yl)oxazol-2-yl)-7-oxononyl)-1,2,3-thiadiazole-4-carboxamide]
- EC50 [1]: > 1 µM
- IC50 (HDAC1): < 0.1 µM
- IC50 (HDAC in Hela cells): 0.1 to 1 µM

SMILES: CCC(=O)CCCCC[C@H](NC(=O)C1CCN(C)CC1)c1ncc(-c2cccc3c2OCCO3)o1 [Compound 5]
- EC50 [1]: > 1 µM
- IC50 (HDAC1): < 0.1 µM
- IC50 (HDAC in Hela cells): > 1 µM

SMILES: CCC(=O)CCCCC[C@H](NC(=O)Cc1c(C)[nH]c2ccc(OC)cc12)c1ncc(-c2ccccc2)o1 [Compound 4, (S)-2-(5-methoxy-2-methyl-1H-indol-3-yl)-N-(7-oxo-1-(5-phenyloxazol-2-yl)nonyl)acetamide]
- EC50 [1]: > 1 µM
- IC50 (HDAC1): < 0.1 µM
- IC50 (HDAC in Hela cells): > 1 µM

SMILES: CCC(=O)CCCCC[C@H](NC(=O)Cc1nccs1)c1ncc(-c2cc3ccccc3nc2OC)o1 [Compound 76, (S)-N-(1-(5-(2-methoxyquinolin-3-yl)oxazol-2-yl)-7-oxononyl)-2-(thiazol-2-yl)acetamide]
- EC50 [1]: > 1 µM
- IC50 (HDAC1): < 0.1 µM
- IC50 (HDAC in Hela cells): 0.1 to 1 µM

SMILES: CCC(=O)CCCCC[C@H](NC(=O)CCN(C)C)c1nnc(-c2cc3ccccc3nc2OC)o1 [Compound 51, (S)-3-(dimethylamino)-N-(1-(5-(2-methoxyquinolin-3-yl)-1,3,4-oxadiazol-2-yl)-7-oxononyl)propanamide]
- EC50 [1]: > 1 µM
- IC50 (HDAC1): < 0.1 µM
- IC50 (HDAC in Hela cells): 0.1 to 1 µM

SMILES: CCC(=O)CCCCC[C@H](NC(=O)C(=O)N(C)C)c1ncc(-c2cc3ccccc3nc2OC)o1 [Compound 36, (S)-N1-(1-(5-(2-methoxyquinolin-3-yl)oxazol-2-yl)-7-oxononyl)-N2,N2-dimethyloxalamide]
- EC50 [1]: > 1 µM
- IC50 (HDAC1): 0.1 to 1 µM
- IC50 (HDAC in Hela cells): 0.1 to 1 µM

SMILES: CCC(=O)CCCCC[C@H](NC(=O)C1(N(C)C)CCCC1)c1ncc(-c2cc3ccccc3nc2OC)o1 [Compound 105, (S)-1-(dimethylamino)-N-(1-(5-(2-methoxyquinolin-3-yl)oxazol-2-yl)-7-oxononyl)cyclopentanecarboxamide]
- EC50 [1]: 0.1 to 1 µM
- IC50 (HDAC1): < 0.1 µM
- IC50 (HDAC in Hela cells): < 0.1 µM

SMILES: CCC(=O)CCCCC[C@H](NC(=O)[C@@H]1CC(F)(F)CN1)c1ncc(-c2cc3ccccc3nc2OC)o1 [Compound 60, (S)-4,4-difluoro-N-((S)-1-(5-(2-methoxyquinolin-3-yl)oxazol-2-yl)-7-oxononyl)pyrrolidine-2-carboxamide]
- EC50 [1]: > 1 µM
- IC50 (HDAC1): < 0.1 µM
- IC50 (HDAC in Hela cells): > 1 µM

SMILES: CCC(=O)CCCCC[C@H](NC(=O)c1cncs1)c1ncc(-c2ccccc2)o1 [Compound 6, (S)-N-(7-oxo-1-(5-phenyloxazol-2-yl)nonyl)thiazole-5-carboxamide]
- EC50 [1]: > 1 µM
- IC50 (HDAC1): < 0.1 µM
- IC50 (HDAC in Hela cells): > 1 µM

SMILES: CCC(=O)CCCCC[C@H](NC(=O)Cc1cccnc1)c1ncc(-c2cc3ccccc3nc2OC)o1 [Compound 74, (S)-N-(1-(5-(2-methoxyquinolin-3-yl)oxazol-2-yl)-7-oxononyl)-2-(pyridin-3-yl)acetamide]
- EC50 [1]: > 1 µM
- IC50 (HDAC1): < 0.1 µM
- IC50 (HDAC in Hela cells): 0.1 to 1 µM

SMILES: CCC(=O)CCCCC[C@H](NC(=O)[C@@H](CC(F)(F)F)N(C)C)c1ncc(-c2cc3ccccc3nc2OC)o1 [Compound 64, (R)-2-(dimethylamino)-4,4,4-trifluoro-N-((S)-1-(5-(2-methoxyquinolin-3-yl)oxazol-2-yl)-7-oxononyl)butanamide]
- EC50 [1]: > 1 µM
- IC50 (HDAC1): < 0.1 µM
- IC50 (HDAC in Hela cells): > 1 µM

SMILES: CCC(=O)CCCCC[C@H](NC(=O)C1CNC1)c1ncc(-c2cc3ccccc3nc2OC)o1 [Compound 57, (S)-N-(1-(5-(2-methoxyquinolin-3-yl)oxazol-2-yl)-7-oxononyl)azetidine-3-carboxamide]
- EC50 [1]: > 1 µM
- IC50 (HDAC1): < 0.1 µM
- IC50 (HDAC in Hela cells): 0.1 to 1 µM

Source: patent publication US9371295B2, “Compounds for use in the treatment of disorders that are ameliorated by inhibition of HDAC” (IRBM—Science Park S.p.A., priority 2012, dated 2016)
